Experimental findings from patent US20210253705A1, “METHODS AND AGENTS FOR TREATING ORGAN INJURY AND TRANSPLANT REJECTION” (The Regents of the University of California, priority 2020, published 2021) are described below.

This experiment has as its system BALB/c airway allografts in C57BL/6 recipients. Put plainly: Heterotopic subcutaneous tracheal/airway transplantation model of allograft rejection. The conditions noted are these: recipients treated with CCR4 inhibitor, day 14. The class given is in vivo, mice.

Molecules are shown by their SMILES.

Method: Each mouse was subcutaneously transplanted with two tracheas. Small molecule CCR4 inhibitor or antagonist C 021 dihydrochloride (Cat #3581, Tocris Bio-Techne, Minneapolis, Minn., USA) was resuspended in sterile DMSO to 100 mg/ml and diluted further in 1×PBS to be administered as intraperitoneal (i.p.) injections at 50 mg/kg daily starting at day −1 prior to tracheal transplantation until day 14 when allografts were harvested for rejection analysis.
Histopathological Evaluation of Airway and Lung Transplants. Airway and lung graft tissues were fixed overnight in 4% paraformaldehyde, processed, paraffin-embedded, sectioned and stained with hematoxylin and eosin (H&E) or Elastin Trichrome. Three independent blinded reviewers calculated the degree of airway injury using a histological scoring system. All qualitative histological changes were evaluated and the total murine rejection score was calculated based on four pathological criteria: (a) airway lining epithelial loss, (b) deposition of extracellular matrix (ECM), (c) leukocyte infiltration, and (d) luminal fibro-obliteration due to granulation tissue formation and/or fibrosis. Each process was scored on a scale of 0-4 (0=normal, 1=mild, 2=moderate, 3=severe and 4=very severe) and added together for a total rejection score. […] Images were taken by Zeiss Axioskop 2 plus microscope and analyzed with AxioVision 4.2 imaging software. […]

With `COc1cc2nc(N3CCC(N4CCCCC4)CC3)nc(NC3CCCCCC3)c2cc1OC.Cl.Cl` [C 021 dihydrochloride, 2-[1,4′-bipiperidin]-1′-yl-N-cycloheptyl-6,7-dimethoxy-4-quinazolinamine dihydrochloride], the “H&E histology of airway allografts” value is “virtually normal epithelium and minimal matrix deposition without fibro-obliteration”.
